Converted amounts (≈) assume the structure as drawn. Structures can show the parent of a compound that is named as a salt. Where two headings read alike, the source gives them in different places.
What was measured:
[1] = tested on: S. epidermidis strain 9142; assay: Biofilm determination, crystal violet, S. epidermidis; format: cell-based, Staphylococcus epidermidis
Experimental: Staphylococcal strains were cultured overnight in TSB at 37° C. with shaking, diluted in fresh medium to an OD600 of 0.01 and 200 W was dispensed into sterile flat bottom polystyrene 96 well microtiter plates (Costar 3596, Corning Inc.). […] Each compound and dilution was tested in triplicate. The plates were incubated overnight at 37° C. in a humidified incubator, without shaking and both growth and biofilm accumulation were determined at 16 h.
Following recording of turbidities, the culture medium was aspirated and the wells were washed three times with distilled water, blotted on paper towels, and fixed with 75% ethanol for 10 minutes.
To visualize biofilm material, 0.5% crystal violet was added to each well and after 5 minutes was removed and the wells washed three times with distilled water. Plates were read using a microplate reader at a wavelength of 570 nm. The dye was then extracted by adding 200 W of 95% ethanol, and the absorbance was read again at 570 nm. All assays were performed in triplicate and the mean and standard deviation determined. Generally, the ethanol-solubilized crystal violet was more reliable and these determinations are reported throughout.

[2] = Zn2+ chelation, spectrophotometric and 1H NMR; format: physicochemical; conditions: 1H NMR in DMSO-d6, ratios 1:1, 1:2, 2:1, up to 72 h
Experimental: To test direct binding of Zn^2+ by NTZ in solution, we tested a range of concentrations of both NTZ and TIZ and scanned the solutions spectrophotometrically using an OLIS Cary-14 (OLIS Instruments Co., Bogart Ga.). Absolute spectra were recorded over a UV/Vis range from 220 nm to 700 nm. Spectral shifts in the 418 nm range would be attributable to changes in resonance within the thiazole ring that would result if Zn^2+ were coordinated by NTZ (9).
Chelation experiments were also performed utilizing NTZ and TIZ in DMSO-d6 (0.5 mL) with ZnCl2 using a 300 MHz Varian MercuryPlus spectrometer. Specifically, three ratios of NTZ to Zn^2+ were investigated (1:1, 1:2, 2:1) where NTZ was held constant (4 mg, 13 μmoles) while varying ZnCl2 (1.8 mg, 13 μmoles or 3.5 mg, 26 μmoles) or NTZ (8 mg, 26 μmoles) with ZnCl2 (1.8 mg, 13 μmoles). Three ratios of TIZ to Zn^2+ were also investigated (1:1, 1:2, 2:1) where TIZ was held constant (4 mg, 15 μmoles) while varying ZnCl2 (2.1 mg, 15 μmoles or 4.1 mg, 30 μmoles) or TIZ (8 mg, 30 μmoles) with ZnCl2 (2.1 mg, 15 μmoles). ^1H NMR spectra were then obtained after mixing for 5 min, 24 h, 48 h, and 72 h at room temperature. Any chelation event would be evidenced by shifting or broadening of the thiazole and benzene protons as well as loss of the amide proton.

[3] = tested on: S. aureus and S. epidermidis strains; assay: MIC by microdilution in TSB, staphylococcal strains; format: cell-based, Staphylococcus epidermidis; conditions: Staphylococcus aureus
Experimental: Minimal inhibitory concentration testing of NTZ was done in sterile round bottom 96 well microtiter polystyrene plates (Corning Inc., Corning, N.Y.) by microdilution. Tizoxanide TIZ (deacetylated form of NTZ), denitro-NTZ (TIZ without 5-nitro group) and amoxanide AMIX (TIZ-ethylamine) were also tested. Bacteria were grown overnight and suspended in fresh TSB to an OD600 of 0.01 and 100 μl were dispensed into wells with the first well containing 200 μA NTZ and other antibiotics (DMSO control) were added to well one and serially diluted from 32 μg/ml. All compounds were tested in triplicate and plates were read visually or with a plate reader (Molecular Devices) at 8, 12 and at 24 h. MIC was determined as the first well in which no visible bacterial growth was noted relative to controls. Drug effects on aerobic growth were determined in 125 ml flasks containing 25 ml of TSB medium and following inoculation (detailed above), flasks were on a gyrorotary shaker (200 rpm) at 37° C. Final concentrations of NTZ were 0, 10 and 25 μg/ml and samples were removed at hourly intervals and absorbance determined at 600 nm.

[4] = reference (33); cited from earlier work
E. histolytica [5] = assay: Amoebic dysentery mouse infection model; format: in vivo; conditions: drugs given orally or parenterally in advance
E. coli biofilm = E. coli biofilm assay (activity tables); format: cell-based, Escherichia coli; conditions: Escherichia coli, read-out: MIC (μM) E. coli Biofilm
Method in brief: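 After 24 h static culture at 37 °C in wells containing NTZ, strain 042 (1:100 inoculum) biofilm was quantified by 0.5% crystal violet absorbance at 570 nm. Planktonic growth was taken from turbidity or LB plate counts as cfu/ml; all runs triplicate, reported as mean and SD.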

MRSA = assay: MIC testing by broth dilution, MRSA; format: cell-based, Staphylococcus aureus; conditions: Staphylococcus aureus, MRSA, 24 h, read-out: MIC (μM) MRSA
Method in brief: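 Values are broth-dilution MICs, defined as the well showing no growth on visual reading after 24 h; the tested range was 32 to 0.06 μg/ml, in organism-specific media (LB, Trypticase Soy, Brain Heart Infusion). The C. difficile entries come instead from anaerobic Kirby-Bauer disk zones, normalised to NTZ.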

[6] = tested on: S. epidermidis strain 9142; assay: Effect of zinc on the action of NTZ (biofilm and MIC); format: cell-based, Staphylococcus epidermidis; conditions: zinc 20 μM, read at 8 h
Experimental: […] As a control, ZnCl2 was added to untreated bacteria. Additional controls included testing of 10 μM CaCl2 and MgCl2 in the same format. The inhibitory effect of EDTA on biofilm production and its reversibility by Zn^2+ was also assessed as described for NTZ.

Solubility in water = format: physicochemical
S. epidermidis biofilm = S. epidermidis biofilm assay (activity tables); format: cell-based, Staphylococcus epidermidis
Method in brief: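 Overnight TSB cultures diluted to OD600 0.01 and grown static with compound (triplicate) at 37° C for 16 h; turbidity recorded for growth. Biofilm: washed wells ethanol-fixed, stained with 0.5% crystal violet, A570 read before and after 95% ethanol extraction; mean ± SD.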

S. epidermidis = assay: MIC testing by broth dilution, S. epidermidis plank; format: cell-based, Staphylococcus epidermidis; conditions: Staphylococcus epidermidis, 24 h, read-out: MIC (μM) S. epidermidis Plank
Method in brief: (§1)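 Media: LB (E. coli), Trypticase Soy (S. epidermidis), BHI (C. jejuni); plank cells. C. difficile on Wilkins Chalgrin agar, anaerobic Kirby-Bauer disks, zone vs NTZ zone ratio.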

E. coli = assay: MIC testing by broth dilution, E. coli plank; format: cell-based, Escherichia coli; conditions: Escherichia coli, 24 h, read-out: MIC (μM) E. coli Plank
Method in brief: as §1

C. jejuni = assay: MIC testing by broth dilution, C. jejuni; format: cell-based, Campylobacter jejuni; conditions: Campylobacter jejuni, 24 h, read-out: MIC (μM) C. jejuni
Method in brief: as §1

H. pylori = assay: MIC testing by broth dilution, H. pylori; format: cell-based, Helicobacter pylori; conditions: Helicobacter pylori, 24 h, read-out: MIC (μM) H. pylori
Method in brief: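 Broth dilution MIC determination against H. pylori: a standard inoculum in 100 microliters of Brain Heart Infusion medium was placed in 96 well microplates. Test compounds began at 32 μg/ml in 200 microliters in well one and were serially diluted over a 32 to 0.06 range. After 24 h, plates were scored by eye and the first well without growth was recorded as the MIC.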

E. histolytica [7] = assay: E. histolytica cell counts
C. difficile [8] = assay: MIC by agar dilution, C. difficile; format: cell-based, Clostridium difficile; conditions: Clostridioides difficile, read-out: MIC (μM) C. difficile
Experimental: A standard broth dilution protocol was used in 96 well microplates containing a standard dilution of the microorganism to be tested in 100 microliters of the appropriate medium. Appropriate medium: E. coli, LB medium; Staphylococcus strains, Trypticase Soy; and for H. pylori and C. jejuni, Brain Heart Infusion. The compounds to be tested were set at 32 μg/ml in 200 microliters in well one and then serially diluted to provide a range from 32 to 0.06. The wells were scored visually at 24 h. The well where there was no growth was recorded as the MIC. […]
Representative compounds of the invention were tested in a series of assays against a series of organisms as described above. […] The organisms tested include, C. difficile, H. pylori, C. jejuni, MRSA, S. epidermidis, and E. coli. S. epidermidis and E. coli were tested in the plank and biofilm assay. A disk diffusion assay was also used for C. difficile. Direct PFOR enzyme assays were also performed. All analogues and derivatives were not tested on every organism in every type of assay (the “-” in each table means that it was not tested).

[9] = tested on: PFOR (pyruvate ferredoxin oxidoreductase); assay: Direct PFOR enzyme assay; format: biochemical
C. difficile [10] = assay: Disk diffusion (Kirby Bower), C. difficile; format: cell-based, Clostridium difficile; conditions: zone of inhibited growth as relative ratio to the zone for NTZ
Method in brief: as §1

In the case of `O=C(Nc1ncc([N+](=O)[O-])s1)c1ccccc1O` [TIZ], the “Inhibition of biofilm production” value ([1]; compared with NTZ) is reported as “equivalent results”, the “Chelation with ZnCl2” value [2] is reported as “no chelation” and the MIC ([3]; staphylococcal strains incl. MRSA S. aureus, microdilution in TSB, read-out: MIC) is reported as 8 to 16 µg/mL (≈ 30.2 to 60.3 µM). For the same compound, the “Bound to plasma proteins” value [4] was 97.5%.
With `NCCOc1ccccc1C(=O)Nc1ncc([N+](=O)[O-])s1` [VPC161219, 2-(2-Aminoethoxy)-N-(5-nitrothiazol-2-yl)benzamide hydrochloride] the Prevention rates (E. histolytica [5]) was “equivalence”, the MIC (E. coli biofilm) was 46.4 µM and the “Fold decrease in anti-biofilm potency versus NTZ” value ([1]; S. epidermidis 9142) was 2 fold. For the same compound, the IC50 ([1]; Staphylococcus epidermidis, 9142, read-out: IC50 biofilm production) was 8 µg/mL, the MIC (MRSA) was 92.8 µM and the “Effect of Zn2+ on the growth inhibitory action (MIC)” value [6] was “no effect”. The “Fold difference in water solubility versus NTZ” value (Solubility in water; more soluble than NTZ) was 15 fold, the solubility (Solubility in water; water) was 400 µg/mL and the “MIC (μM) S. epidermidis Biofilm” value (S. epidermidis biofilm) was 46.4 µM. For the same compound, the MIC (S. epidermidis) was 92.8 µM, the MIC (E. coli) was 69.6 µM and the MIC (C. jejuni) was 17.4 µM. The MIC (H. pylori) was 0.7 µM, the “E. histolytica cell counts, compared by MIC” value (E. histolytica [7]) was “superior to nitazoxanide based on MIC” and the MIC ([3]; MRSA) was 16 to 32 µg/mL. The MIC (C. difficile [8]) was 46.4 µM, the “PFOR inhibition relative to nitazoxanide (=100)” value [9] was 114% and the “Disk Diffusion (%) C. difficile” value (C. difficile [10]) was 88 ± 4%.

— patent publication US8835644B2, “Broad spectrum benzothiophene-nitrothiazolide and other antimicrobials” (University of Virginia Patent Foundation, priority 2009, dated 2014)
